Measured values reported in patent US20070270392A1, “Use of a Cyclopentenone Prostaglandin for Delaying the Onset and/or Preventing the Continuation of Labour” (Imperial College Innovations Limited, priority 2003, published 2007).

Legend:
Format in all cases: cell-based, human
[1] = system: NF-κB; assay: NF-κB-dependent luciferase reporter (κB.BG.Luc) in amnion cells; settings: L− and L+ amnion cells, treated 2 h, IL-1β 1 ng/ml 6 h
Experimental: . Values are normalised for b-gal reporter activity.
(§1) Placentae were obtained from patients at term either at elective Caesarean section prior to labour (L−) or following spontaneous labour onset and vaginal delivery (L+). Amnion cells were prepared as described in Bennett et al., (1989). Briefly, the amnion was separated from the placenta, washed 3× in PBS, cut into strips, and incubated in 0.51 mM EDTA in PBS for 15 min. The strips were washed in PBS 2× and digested with 2.5 mg/ml dispase in serum-free DMEM for 35 min at 37° C. The amnion was then shaken vigorously in DMEM, 10% FCS to dissociate the cells, the remaining strips discarded, and the cell suspension pelleted at 175 g for 10 min and cultured in DMEM, 10% FCS (Sigma), 1% L-glutamine, 1% penicillin-streptomycin.
pGL3.6 κB.BG.luc was the reporter construct used to assess NF-κB-mediated transcription, while the mutant pGL3.6 κBmut.luc and empty pGL3.BG.luc were used as controls (Schwarzer et al., 1998).
pGL3.6 κB.BG.luc: a NF-κB-dependent reporter construct with 6 copies of the NF-κB binding site. It contains two tandem repeats of the sequence 5′-GGG GAC TTT C CC TGGGGACTTTCCCTGGGGACTTTCCC-3′, which contains three copies of the decameric NF-κB binding site (underlined) upstream of a minimal β-globin promoter driving a luciferase gene. […]

[2] = system: NF-κB; assay: EMSA of NF-κB DNA binding in nuclear extracts of treated amnion cells; settings: L− and L+ amnion cells, treated 2 h, IL-1β stimulation 15 min
Experimental: Electro-mobility shift assay (EMSA) analysis of NF-κB DNA binding in nuclear protein extracts from (A) myometrial cells, (B) L+amnion cells, and (C) L− amnion cells treated with 15dPGJ2 or vehicle for 2 h+/−IL-1b stimulation (15 min). Consensus kB probe used to assess NF-κB DNA binding, and consensus Oct-1 probe used as control.
EMSA analysis of nuclear protein extracts from amnion cells treated with 15dPGJ2+/−GW9662 or vehicle for 2 h followed by IL-1β stimulation (15 min). Consensus kB probe used to assess NFκB DNA binding, consensus Oct-1 probe used as control.
EMSA analysis of nuclear protein extracts from (A) myometrial cells, and (B) amnion cells treated with PGA1 or vehicle for 2 h followed by IL-1b stimulation (15 min). Consensus κB probe used to assess NFκB DNA binding, consensus Oct-1 probe used as control. For supershift analysis, extracts were preincubated with antibodies against p50 or p65.
EMSA analysis of nuclear protein extracts from (A) L− amnion cells and (B) myometrial cells treated with vehicle, PGE2 or IL-1β. Consensus κB probe used.
as §1
Nuclear and cytosolic protein extracts were obtained from cultured amnion cells as described by Schreiber et al (1989). For nuclear/cytosolic fractionation, confluent cell monolayers were scraped and lysed using a buffer containing 10 mM HEPES, 10 mM KCl, 0.1 mM EDTA, 0.1 mM EGTA, 2 mM DTT, 1% (v/v) NP-40 and complete protease inhibitor tablets (CPIs, Roche), diluted to manufacturer's instructions. Cell lysates were incubated on ice for 10 min and NP-40 added to a final concentration of 1% (v/v). Lysates were vortexed for 10 secs and centrifuged for 30 secs at 4° C., 12000 g. The supernatants were retained as the cytosolic protein extracts. The pellets were resuspended in buffer containing 10 mM HEPES, 10 mM KCl, 0.1 mM EDTA, 0.1 mM EGTA, 2 mM DTT, 400 mM NaCl, 1% NP-40 (v/v) and CPIs. Samples were shaken vigorously for 15 min in an ice bath. The nuclear protein extracts were obtained in the supernatant following a 5 min centrifugation at 4° C., 12000 g.
Sense and antisense strands (175 nmole/ml each) were incubated in annealing buffer (10 mM Tris-HCl pH7.5, 100 mM NaCl, 1 mM EDTA) for 10 min at 65° C., and allowed to cool at room temperature for 2 h. 3.5 pmole double-stranded oligonucleotides were end-labelled with 0.37 MBq ^32P(γATP) by incubating for 30 min at 37° C. with T4 polynucleotide kinase. Labelled oligonucleotides were recovered by centrifugation at […] for 2 min through MicroSpin G-25 or G-50 sephadex columns (Amersham Biosciences). […]

[3] = system: NF-κB; assay: NF-κB-dependent luciferase reporter (κB.BG.Luc) in myometrial cells; settings: for IL-1-induced NF-κB transcriptional activity: treated 2 h, IL-1β 1 ng/ml 6 h
Experimental: Myometrial cells were transiently transfected with the NFκB-dependent reporter construct κB.BG.Luc, treated with 15dPGJ2 or vehicle for 2 h, +/−IL-1β(1 ng/ml) for 6 h. […] Values are normalised for b-gal reporter activity. (NS=nonstimulated).
Myometrial cells were transfected with […] κB.BG.Luc reporter and 200 ng PPAR-γ expression vector and treated with 15d-PGJ2 for 2 h followed by IL-1β (1 ng/ml) for 6 h. Values are normalised for β-galactosidase reporter activity. (NS=nonstimulated).
Myometrial tissue was collected at term from the upper margin of uterine incision at the time of lower segment caesarean section either prior to the onset of labour (L−) or […] (L+). L+ samples were collected by Dr Mark Johnson and Dr S Soorrana at Chelsea & Westminster Hospital. Myometrial tissue was dissected, rinsed in PBS, and digested in serum-free DMEM containing 15 mg/ml collagenase 1A (Sigma), 15 mg/ml collagenase X, and 50 mg/ml bovine serum albumin for 45 min at 37° C. The cell suspension was filtered through a cell strainer, centrifuged at 400 g for 5 min, and the pellet re-suspended and plated out in DMEM, 10% FCS (Helena BioScience), 1% L-glutamine, 1% penicillin-streptomycin. Cells were used between passage numbers 1-4.
pGL3.6 κB.BG.luc: a NF-κB-dependent reporter construct with 6 copies of the NF-κB binding site.
Cells were co-transfected with the renilla vector pRL-CMV or a β-galactosidase vector pCH110 as internal controls for transfection efficiencies.

| Compound | IL-1-induced NF-κB transcriptional activity [1] | IL-1β-induced NF-κB DNA binding [2] | Effect of PPARγ overexpression on 15d-PGJ2 inhibition of NF-κB transcriptional activity ([3]; 200 ng PPAR-γ expression vector) | IL-1-induced NF-κB transcriptional activity [3] |
| --- | --- | --- | --- | --- |
| CCCCCC=CC=C1C(=O)C=C[C@@H]1CC=CCCCC(=O)O [15d-PGJ2, 15-deoxy-Δ^12,14prostaglandin J2] | inhibited | inhibited | did not promote | inhibited |
| CCCCC[C@H](O)/C=C/[C@H]1C=CC(=O)[C@@H]1CCCCCCC(=O)O [PGA1, prostaglandin A1] | inhibited | able to inhibit |  | reduced to basal levels |
